Data reported in US20090124645A1, “Novel Pyrimidine-2,4-Diamine Derivatives and their Use as Modulators of Small-Conductance Calcium-Activated Potassium Channels” (NeuroSearch A/S, priority 2005, published 2009).
Counter-ions that a name gives are not always drawn.

| Structure (SMILES) | melting point |
| --- | --- |
| CC(Nc1ccnc(NC(C)c2ccc(F)cc2)n1)c1ccc(F)cc1 (stereo not drawn) (as salt: HCl) [Example 5, N^2,N^4-Bis[1-(4-fluorophenyl)ethyl]pyrimidine-2,4-diamine] | 151 to 154 °C |
| Clc1ccc(CNc2ccnc(NCc3ccc(Cl)c(Cl)c3)n2)cc1Cl (as salt: HCl) [Example 4, N^2,N^4-Bis(3,4-dichlorobenzyl)pyrimidine-2,4-diamine] | 167 to 170 °C |
| FC(F)(F)c1cccc(CNc2ccnc(NCc3cccc(C(F)(F)F)c3)n2)c1 (as salt: HCl) [Example 3, N^2,N^4-Bis[3-(trifluoromethyl)benzyl]pyrimidine-2,4-diamine] | 172 °C |

Next, values leading:

| melting point | Structure (SMILES) |
| --- | --- |
| 177.4 to 179.4 °C | Fc1ccc(CCNc2ccnc(NCCc3ccc(F)cc3)n2)cc1 (as salt: HCl) [Example 10, N^2,N^4-Bis[2-(4-fluorophenyl)ethyl]pyrimidine-2,4-diamine] |
| 201 to 204 °C | Clc1ccc(CCNc2ccnc(NCCc3ccc(Cl)cc3)n2)cc1 (as salt: HCl) [Example 11, N^2,N^4-Bis[2-(4-chlorophenyl)ethyl]pyrimidine-2,4-diamine] |
| 213 to 216 °C | Clc1ccc(CNc2ccnc(NCc3ccc(Cl)cc3)n2)cc1 (as salt: HCl) [Example 7, N^2,N^4-Bis(4-chlorobenzyl)pyrimidine-2,4-diamine] |
